In PMC4674167 (The Journal of organic chemistry, 2015):
Where two headings read alike, the source gives them in different places.

Assays:
[1] = rat, in vivo, cited from earlier work; for p.o. AUC0-inf / p.o. Cmax: po, 25 mg/kg
MbtA = MbtA (Mycobacterium tuberculosis, UniProt P71716); format: biochemical; settings: for Ki: read-out: Ki^app, apparent Ki against MbtA; for fold more potent in MbtA inhibition than the 3′-α-fluoro diastereomer: 14 vs 15, 16 vs 17
[2] = test system: M. tuberculosis strain H37Rv; format: cell-based, Mycobacterium tuberculosis; settings: for fold more potent in MIC than the 3′-α-fluoro diastereomer: 14 vs 15, 16 vs 17, M. tuberculosis H37Rv
[3] = rat, in vivo; for i.v. AUC0-inf / i.v. CL / i.v. t1/2: iv, 2.5 mg/kg; for p.o. AUC0-inf / p.o. Cmax: po, 25 mg/kg
[4] = Single dose pharmacokinetics in cannulated rats

Sequence of MbtA (P71716 whole entry): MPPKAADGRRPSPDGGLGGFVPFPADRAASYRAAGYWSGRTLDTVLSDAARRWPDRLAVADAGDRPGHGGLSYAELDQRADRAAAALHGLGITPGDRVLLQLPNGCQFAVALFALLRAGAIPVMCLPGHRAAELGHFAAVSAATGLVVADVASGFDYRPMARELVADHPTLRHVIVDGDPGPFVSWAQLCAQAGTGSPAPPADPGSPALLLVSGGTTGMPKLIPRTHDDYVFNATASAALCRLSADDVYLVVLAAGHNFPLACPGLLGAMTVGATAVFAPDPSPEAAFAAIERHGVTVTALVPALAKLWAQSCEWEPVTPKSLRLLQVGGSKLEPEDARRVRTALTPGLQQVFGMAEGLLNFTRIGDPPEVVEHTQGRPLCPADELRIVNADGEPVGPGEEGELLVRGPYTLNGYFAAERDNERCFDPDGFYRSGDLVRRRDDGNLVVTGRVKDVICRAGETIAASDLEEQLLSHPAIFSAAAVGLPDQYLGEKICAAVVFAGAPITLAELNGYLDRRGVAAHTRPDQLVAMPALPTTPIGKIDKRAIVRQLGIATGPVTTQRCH

Row | SMILES | Ki (MbtA) [nM] | MIC [2] [µM] | F (relative oral bioavailability) [3] [%] | i.v. AUC0-inf [3] [μg.min.mL^–1] | i.v. CL [3] [mL.min^–1.kg^–1] | i.v. t1/2 [3] [min] | p.o. AUC0-inf [3] [μg.min.mL^–1] | p.o. Cmax [3] [μg.mL^–1] | further results
1 | Nc1ncnc2c1ncn2[C@@H]1O[C@H](COS(=O)(=O)NC(=O)c2ccccc2O)[C@@H](O)[C@H]1O [compound 10, 5′-O-[N-(salicyl)sulfamoyl]adenosine] |  |  |  |  |  |  |  |  | i.v. AUC0-inf ([1]; iv, 2.5 mg/kg): 519 ± 115 μg.min.mL^–1; i.v. t1/2 ([1]; iv, 2.5 mg/kg): 11.2 ± 2.2 min; p.o. AUC0-inf [1]: 66 ± 41 μg.min.mL^–1; p.o. Cmax [1]: 0.40 ± 0.20 μg.mL^–1; F (relative oral bioavailability) [1]: 1.3 ± 0.7%
2 | CCN(CC)CC.Nc1ncnc2c1ncn2[C@@H]1O[C@H](CNS(=O)(=O)NC(=O)c2ccccc2O)[C@@H](F)[C@H]1F [compound 17, 9-[2,3,5-Trideoxy-2,3-difluoro-5-{N-(N-2-hydroxybenzoyl)sulfamoyl}amino-β-D-ribofuranosyl]adenine Triethylammonium Salt] | 139 ± 10 | 37 | 5.3 ± 1.3 | 10100 ± 2200 | 0.24 ± 0.06 | 267 ± 36 | 4730 ± 540 | 5.99 ± 0.56 | fold increase in half-life compared to SAL-AMS (10) [4]: ca. 25 fold; fold higher Cmax compared to SAL-AMS (10) ([4]; p.o. 25 mg/kg): 15 fold; fold increase in F% compared to SAL-AMS (10) ([4]; p.o. 25 mg/kg): fourfold; fold increased oral exposure (oral AUC) compared to SAL-AMS (10) ([4]; p.o. 25 mg/kg): ca. 75 fold
3 | Nc1ncnc2c1ncn2[C@@H]1O[C@H](CNS(=O)(=O)NC(=O)c2ccccc2O)[C@@H](O)[C@H]1O [compound 11] |  |  |  |  |  |  |  |  | i.v. AUC0-inf ([1]; iv, 2.5 mg/kg): 304 ± 60 μg.min.mL^–1; i.v. CL ([1]; iv, 2.5 mg/kg): 8.4 ± 1.9 mL.min^–1.kg^–1; i.v. t1/2 ([1]; iv, 2.5 mg/kg): 10.6 ± 0.7 min; p.o. AUC0-inf [1]: 100 ± 14 μg.min.mL^–1; p.o. Cmax [1]: 0.70 ± 0.07 μg.mL^–1; F (relative oral bioavailability) [1]: 3.5 ± 0.2%
4 | CCN(CC)CC.Nc1ncnc2c1ncn2[C@@H]1O[C@H](CNS(=O)(=O)NC(=O)c2ccccc2O)[C@@H](O)[C@@H]1F [compound 13, 9-[2,5-Dideoxy-2-fluoro-5-{N-(N-2-hydroxybenzoyl)sulfamoyl}amino-β-D-arabinofuranosyl]adenine Triethylammonium Salt] | 1.7 to 1.8 | 0.15 | 4.7 ± 1.1 | 913 ± 65 | 2.7 ± 0.2 | 31.7 ± 1.9 | 422 ± 70 | 1.09 ± 0.03 | Ki (MbtA; listed as C00003): 1.8 ± 0.1 nM
5 | CCN(CC)CC.Nc1ncnc2c1ncn2[C@@H]1O[C@H](CNS(=O)(=O)NC(=O)c2ccccc2O)[C@H](F)[C@H]1O [compound 14, 9-[3,5-Dideoxy-3-fluoro-5-{N-(N-2-hydroxybenzoyl)sulfamoyl}amino-β-D-xylofuranosyl]adenine Triethylammonium Salt] | 0.6 ± 0.3 | 0.60 | 2.3 ± 0.4 | 366 ± 33 | 6.9 ± 0.3 | 17.4 ± 1.4 | 84 ± 12 | 0.64 ± 0.22 | fold more potent in MbtA inhibition than the 3′-α-fluoro diastereomer (MbtA): approximately 10 fold; fold more potent in MIC than the 3′-α-fluoro diastereomer [2]: fourfold
6 | CCN(CC)CC.Nc1ncnc2c1ncn2[C@@H]1O[C@H](CNS(=O)(=O)NC(=O)c2ccccc2O)[C@@H](O)[C@H]1F [compound 12, 9-[2,5-Dideoxy-2-fluoro-5-{N-(N-2-hydroxybenzoyl)sulfamoyl}amino-β-D-ribofuranosyl]adenine Triethylammonium Salt] | 1.7 to 1.8 | 0.19 | 1.8 ± 0.9 | 1040 ± 330 | 2.5 ± 0.9 | 32.5 ± 7.4 | 187 ± 11 | 0.46 ± 0.30 | Ki (MbtA; listed as C00001): 1.7 ± 0.1 nM
7 | CCN(CC)CC.Nc1ncnc2c1ncn2[C@@H]1O[C@H](CNS(=O)(=O)NC(=O)c2ccccc2O)[C@H](F)[C@H]1F [compound 16, 9-[2,3,5-Trideoxy-2,3-difluoro-5-{N-(N-2-hydroxybenzoyl)sulfamoyl}amino-β-D-xylofuranosyl]adenine Triethylammonium Salt] | 1.4 ± 0.3 | 0.78 | 11.4 ± 0.3 | 312 ± 54 | 8.5 ± 1.6 | 17.2 ± 1.3 | 362 ± 85 | 0.97 ± 0.42 | fold more potent in MbtA inhibition than the 3′-α-fluoro diastereomer (MbtA): ~100 fold; fold more potent in MIC than the 3′-α-fluoro diastereomer [2]: ca. 50 fold
8 | CCN(CC)CC.Nc1ncnc2c1ncn2[C@@H]1O[C@H](CNS(=O)(=O)NC(=O)c2ccccc2O)[C@@H](F)[C@H]1O [compound 15, 9-[3,5-Dideoxy-3-fluoro-5-{N-(N-2-hydroxybenzoyl)sulfamoyl}amino-β-D-ribofuranosyl]adenine Triethylammonium Salt] | 6.4 ± 0.3 | 2.3 | 3.5 ± 0.2 | 807 ± 78 | 3.1 ± 0.3 | 37.0 ± 1.7 | 266 ± 2 | 0.92 ± 0.04 | 
